{"source": "patent US6765010B2", "about": "“Compositions and methods for enhancing analgesic potency of tramadol and attenuating its adverse side effects” (Pain Therapeutics, Inc., priority 1999, dated 2004)", "test_system": "human subjects/patients with pain following dental surgery", "test": "Dental surgery pain study: adverse events", "key": {"[1]": {"conditions": "ITT, counted once per subject (Table 15)"}, "[2]": {"conditions": "Severity = Moderate, ITT subjects"}}}
{"smiles": "COc1cccc([C@@]2(O)CCCC[C@@H]2CN(C)C)c1.Cl", "note": "(racemic) [tramadol, (1RS,2RS)-2[(dimethylamino)-methyl]-1-(3-methoxyphenyl)-cyclohexanol HCL]", "values": [{"measurement": "Gastrointestinal Disorders, frequency (percentage)", "setting": "ITT, all severities", "value": "20 (40.0%) n (%)"}, {"measurement": "Gastrointestinal Disorders, occurrence", "setting": "ITT, all severities", "value": 40, "unit": "events"}, {"measurement": "Headache Nos, frequency (percentage)", "setting": "ITT, all severities", "value": "28 (56.0%) n (%)"}, {"measurement": "Headache Nos, occurrence", "setting": "ITT, all severities", "value": 38, "unit": "events"}, {"measurement": "Nausea, frequency (percentage)", "setting": "ITT, all severities", "value": "20 (40.0%) n (%)"}, {"measurement": "Nausea, occurrence", "setting": "ITT, all severities", "value": 28, "unit": "events"}, {"measurement": "Nervous System Disorders, frequency (percentage)", "setting": "ITT, all severities", "value": "40 (80.0%) n (%)"}, {"measurement": "Nervous System Disorders, occurrence", "setting": "ITT, all severities", "value": 89, "unit": "events"}, {"measurement": "Pruritus Nos, frequency (percentage)", "setting": "ITT, all severities", "value": "2(4.0%) n (%)"}, {"measurement": "Pruritus Nos, occurrence", "setting": "ITT, all severities", "value": 2, "unit": "events"}, {"measurement": "Sedation, frequency (percentage)", "setting": "ITT, all severities", "value": "28 (56.0%) n (%)"}, {"measurement": "Sedation, occurrence", "setting": "ITT, all severities", "value": 32, "unit": "events"}, {"measurement": "Skin & Subcutaneous Tissue Disorders, frequency (percentage)", "setting": "ITT, all severities", "value": "2 (4.0%) n (%)"}, {"measurement": "Skin & Subcutaneous Tissue Disorders, occurrence", "setting": "ITT, all severities", "value": 2, "unit": "events"}, {"measurement": "Vomiting Nos, frequency (percentage)", "setting": "ITT, all severities", "value": "10 (20.0%) n (%)"}, {"measurement": "Vomiting Nos, occurrence", "setting": "ITT, all severities", "value": 12, "unit": "events"}, {"measurement": "Incidence of Nausea, No", "setting": "[1]", "value": "30 (60.0%) n (%)"}, {"measurement": "Incidence of Nausea, Yes", "setting": "[1]", "value": "20 (40.0%) n (%)"}, {"measurement": "Incidence of Vomiting Nos, No", "setting": "[1]", "value": "40 (80.0%) n (%)"}, {"measurement": "Incidence of Vomiting Nos, Yes", "setting": "[1]", "value": "10 (20.0%) n (%)"}, {"measurement": "Dizziness (Exc Vertigo), frequency (subjects)", "setting": "Severity = Mild, ITT subjects", "value": 12}, {"measurement": "Dizziness (Exc Vertigo), occurrence (events)", "setting": "Severity = Mild, ITT subjects", "value": 16}, {"measurement": "Dizziness (Exc Vertigo), percentage of subjects", "setting": "Severity = Mild, ITT subjects", "value": 24.0, "unit": "%"}, {"measurement": "Gastrointestinal Disorders, frequency (subjects)", "setting": "Severity = Mild, ITT subjects", "value": 6}, {"measurement": "Gastrointestinal Disorders, occurrence (events)", "setting": "Severity = Mild, ITT subjects", "value": 15}, {"measurement": "Gastrointestinal Disorders, percentage of subjects", "setting": "Severity = Mild, ITT subjects", "value": 12.0, "unit": "%"}, {"measurement": "Headache Nos, frequency (subjects)", "setting": "Severity = Mild, ITT subjects", "value": 17}, {"measurement": "Headache Nos, occurrence (events)", "setting": "Severity = Mild, ITT subjects", "value": 26}, {"measurement": "Headache Nos, percentage of subjects", "setting": "Severity = Mild, ITT subjects", "value": 34.0, "unit": "%"}, {"measurement": "Nausea, frequency (subjects)", "setting": "Severity = Mild, ITT subjects", "value": 9}, {"measurement": "Nausea, occurrence (events)", "setting": "Severity = Mild, ITT subjects", "value": 14}, {"measurement": "Nausea, percentage of subjects", "setting": "Severity = Mild, ITT subjects", "value": 18.0, "unit": "%"}, {"measurement": "Nervous System Disorders, frequency (subjects)", "setting": "Severity = Mild, ITT subjects", "value": 23}, {"measurement": "Nervous System Disorders, occurrence (events)", "setting": "Severity = Mild, ITT subjects", "value": 66}, {"measurement": "Nervous System Disorders, percentage of subjects", "setting": "Severity = Mild, ITT subjects", "value": 46.0, "unit": "%"}, {"measurement": "Number of Events", "setting": "Severity = Mild, ITT subjects", "value": 84}, {"measurement": "Number of subjects with adverse events", "setting": "Severity = Mild, ITT subjects", "value": 15}, {"measurement": "Percentage of subjects with adverse events", "setting": "Severity = Mild, ITT subjects", "value": 30.0, "unit": "%"}, {"measurement": "Pruritus Nos, frequency (subjects)", "setting": "Severity = Mild, ITT subjects", "value": 2}, {"measurement": "Pruritus Nos, occurrence (events)", "setting": "Severity = Mild, ITT subjects", "value": 2}, {"measurement": "Pruritus Nos, percentage of subjects", "setting": "Severity = Mild, ITT subjects", "value": 4.0, "unit": "%"}, {"measurement": "Sedation, frequency (subjects)", "setting": "Severity = Mild, ITT subjects", "value": 21}, {"measurement": "Sedation, occurrence (events)", "setting": "Severity = Mild, ITT subjects", "value": 24}, {"measurement": "Sedation, percentage of subjects", "setting": "Severity = Mild, ITT subjects", "value": 42.0, "unit": "%"}, {"measurement": "Skin & Subcutaneous Tissue Disorders, frequency (subjects)", "setting": "Severity = Mild, ITT subjects", "value": 2}, {"measurement": "Skin & Subcutaneous Tissue Disorders, occurrence (events)", "setting": "Severity = Mild, ITT subjects", "value": 2}, {"measurement": "Skin & Subcutaneous Tissue Disorders, percentage of subjects", "setting": "Severity = Mild, ITT subjects", "value": 4.0, "unit": "%"}, {"measurement": "Vomiting Nos, frequency (subjects)", "setting": "Severity = Mild, ITT subjects", "value": 3}, {"measurement": "Vomiting Nos, occurrence (events)", "setting": "Severity = Mild, ITT subjects", "value": 4}, {"measurement": "Vomiting Nos, percentage of subjects", "setting": "Severity = Mild, ITT subjects", "value": 6.0, "unit": "%"}, {"measurement": "Dizziness (Exc Vertigo), frequency (subjects)", "setting": "[2]", "value": 3}, {"measurement": "Dizziness (Exc Vertigo), occurrence (events)", "setting": "[2]", "value": 3}, {"measurement": "Dizziness (Exc Vertigo), percentage of subjects", "setting": "[2]", "value": 6.0, "unit": "%"}, {"measurement": "Gastrointestinal Disorders, frequency (subjects)", "setting": "[2]", "value": 12}, {"measurement": "Gastrointestinal Disorders, occurrence (events)", "setting": "[2]", "value": 23}, {"measurement": "Gastrointestinal Disorders, percentage of subjects", "setting": "[2]", "value": 24.0, "unit": "%"}, {"measurement": "Headache Nos, frequency (subjects)", "setting": "[2]", "value": 10}, {"measurement": "Headache Nos, occurrence (events)", "setting": "[2]", "value": 11}, {"measurement": "Headache Nos, percentage of subjects", "setting": "[2]", "value": 20.0, "unit": "%"}, {"measurement": "Nausea, frequency (subjects)", "setting": "[2]", "value": 10}, {"measurement": "Nausea, occurrence (events)", "setting": "[2]", "value": 13}, {"measurement": "Nausea, percentage of subjects", "setting": "[2]", "value": 20.0, "unit": "%"}, {"measurement": "Nervous System Disorders, frequency (subjects)", "setting": "[2]", "value": 16}, {"measurement": "Nervous System Disorders, occurrence (events)", "setting": "[2]", "value": 22}, {"measurement": "Nervous System Disorders, percentage of subjects", "setting": "[2]", "value": 32.0, "unit": "%"}, {"measurement": "Number of Events", "setting": "[2]", "value": 47}, {"measurement": "Number of subjects with adverse events", "setting": "[2]", "value": 22}, {"measurement": "Percentage of subjects with adverse events", "setting": "[2]", "value": 44.0, "unit": "%"}, {"measurement": "Sedation, frequency (subjects)", "setting": "[2]", "value": 7}, {"measurement": "Sedation, occurrence (events)", "setting": "[2]", "value": 8}, {"measurement": "Sedation, percentage of subjects", "setting": "[2]", "value": 14.0, "unit": "%"}, {"measurement": "Vomiting Nos, frequency (subjects)", "setting": "[2]", "value": 9}, {"measurement": "Vomiting Nos, occurrence (events)", "setting": "[2]", "value": 10}, {"measurement": "Vomiting Nos, percentage of subjects", "setting": "[2]", "value": 18.0, "unit": "%"}]}
